Measurements published in PMC8841740, “Fluorescent Ligand-Based Discovery of Small-Molecule Sulfonamide Agonists for GPR120” (Frontiers in Chemistry, 2022).

Tests used:
GPR120 [1] = biological target: T1, GPR120 (Homo sapiens, UniProt Q5NUL3); assay: Preliminary screening of agonists by BRET competition with probe N1; type: binding; design: expressed in transfected cells; conditions: 10 μM compound, probe N1 400 nM
T1 sequence (Q5NUL3 1-361): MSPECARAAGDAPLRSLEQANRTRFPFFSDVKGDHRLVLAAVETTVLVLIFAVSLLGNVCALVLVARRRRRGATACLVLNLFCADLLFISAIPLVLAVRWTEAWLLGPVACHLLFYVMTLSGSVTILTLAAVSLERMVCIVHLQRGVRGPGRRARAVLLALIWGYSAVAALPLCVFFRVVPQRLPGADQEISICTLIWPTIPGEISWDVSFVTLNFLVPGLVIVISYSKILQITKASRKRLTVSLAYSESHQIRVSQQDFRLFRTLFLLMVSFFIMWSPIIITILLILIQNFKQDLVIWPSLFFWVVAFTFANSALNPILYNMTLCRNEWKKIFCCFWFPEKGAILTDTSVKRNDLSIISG
Description: HEK293 cells stably transfected with the GPR120-Rluc gene were seeded in a black 96-well plate (100 μl, 2 × 10^4 cells per well). After a 24-h incubation, the medium was removed, probe N1 (400 nM, 50 μl per well) was added, and 10 μM of the compound was added after a 30-min incubation as well. Followed by a 40-min incubation, coelenterazine (final concentration: 10 μM, 50 μl per well) was added to the plate. Afterward, the fluorescence intensity was measured at 450 and 550 nm with the microplate reader after another 10-min incubation.

GPR120 [2] = biological target: T1, GPR120; assay: GPR120 Ca2+ flow assay in HEK293 cells stably transfecting the GPR120-Rluc gene; type: cell-based; design: expressed in transfected cells; conditions: for Emax (FFA4 Ca2+): GSK137647A used as a standard
Description: Ca^2+ flow activity was determined in HEK293 cells stably transfecting the GPR120-Rluc gene. After incubating the cells for 24 h, the medium was removed from the plate, and the cells were washed with HBSS buffer (without Ca^2+ and Mg^2+). Subsequently, a 2-μM Fluo-4 AM working solution in HBSS buffer (without Ca^2+ and Mg^2+) was added to the plate (40 μl per well).

GPR120 [3] = biological target: T1, GPR120; assay: BRET activity test (β-arrestin-2 recruitment, GPR120-YFP / β-arrestin-2-Rluc in HEK293 cells); type: cell-based; design: host or cells: HEK293 (transfected with both plasmids); conditions: for Emax (FFA4 β-arrestin2): GSK137647A used as a standard
Description: GPR120-YFP and β-arresting-2-Rluc plasmids were transfected into HEK293 cells. After a 24-h incubation, the cells were seeded in a black 96-well plate (100 μl, 20,000 cells per well). Followed by a 24-h incubation, the solution was removed from the plate, and compounds with different concentrations (100 μl per well) and coelenterazine (10 μM, 100 μl per well) were added, followed by the fluorescence intensity was measured at 460 and 520 nm with the microplate reader ([Christiansen et al., 2016]; [Hill et al., 2018]).

GPR40 = biological target: T2, GPR40 (Homo sapiens, UniProt O14842); assay: GPR40 Ca2+ flow assay in CHO cells with transient GPR40 gene; type: cell-based; conditions: CHO cells, GPR40; read-out: FFA1 (Ca2+ pEC50) (converted)
T2 construct: expressed in transfected cells; host or cells: CHO (transient)
Description: Ca^2+ flow activity was determined in HEK293 cells stably transfecting the GPR120-Rluc gene. After incubating the cells for 24 h, the medium was removed from the plate, and the cells were washed with HBSS buffer (without Ca^2+ and Mg^2+). Subsequently, a 2-μM Fluo-4 AM working solution in HBSS buffer (without Ca^2+ and Mg^2+) was added to the plate (40 μl per well). After incubating the cells for 20 min at 37°C, compound solution at different concentrations in HBSS buffer (per well 160 μl) was added. Followed by a 40-min incubation, the solution was removed from the plate, HEPES buffer (200 μl per well) was added, and the fluorescence intensity was detected using the microplate reader (Ex: 488 nm; Em: 520 nm) ([Watterson et al., 2017]).
Ca^2+ flow activity was determined in CHO cells with transient GPR40 gene by the same method as well, in which the GPR40 agonist TAK875 was used as a positive control.

[4] = Optical property of fluorescent probes; type: physicochemical; conditions: for λabs: MeCN; for Φ (absolute quantum yield) / λem / λex: PBS; for SS (stokes shift): PBS buffer (pH = 7.4)
Description: The stocking solution of probes was diluted with acetonitrile to 40 μM, and their ultraviolet absorption spectrum was scanned with an ultraviolet spectrophotometer. Secondly, the excitation and emission spectra of probes at 10, 20, 30, and 40 μM with PBS buffer were measured with a microplate reader. Moreover, the excitation and emission spectrum were recorded in four solvents: MeCN, DMSO, H2O, and EA, respectively.

GPR120 [5] = conditions: cited from earlier work
[6] = Table 3, read-out: FFA4 (Ca2+ pEC50) (converted)
[7] = Table 3, read-out: FFA4 (β-arrestin2 pEC50) (converted)
[8] = GPR120, Ca2+ flow, HEK293 GPR120-Rluc cells, read-out: pEC50 Ca2+ assay (converted)
[9] = GPR120, β-arrestin-2 activity test, read-out: pEC50 BRET (converted)

With `O=S(=O)(Nc1ccc(Oc2ccccc2)cc1)c1ccc(-c2ccc(OC(F)(F)F)cc2)cc1` [Compound D4, N-(4-Phenoxyphenyl)-4′-(Trifluoromethoxy)-[1,1′-Biphenyl]-4-Sulfonamide] the melting point was 144 to 145 °C.

Work on `COc1cc(NS(=O)(=O)c2ccc(-c3ccc(OC(F)(F)F)cc3)cc2)cc(OC)c1OC` [Compound D3, 4′-(Trifluoromethoxy)-N-(3,4,5-Trimethoxyphenyl)-[1,1′-Biphenyl]-4-Sulfonamide] yielded a melting point of 136 to 137 °C.

In the case of `Cc1cc(C)c(NS(=O)(=O)c2ccc(-c3ccc4ccccc4c3)cc2)c(C)c1` [Compound B7, N-Mesityl-4-(Naphthalen-2-yl)benzenesulfonamide], the “inhibition rate in BRET screening compared with GSK137647A” value (GPR120 [1]) is reported as “higher than GSK137647A”, the “Emax (FFA4 Ca2+)” value (GPR120 [2]) is reported as 0.285 and the EC50 (GPR120 [2]; [6]) is reported as 138 nM. The “Emax (FFA4 β-arrestin2)” value (GPR120 [3]) was 0.894, the EC50 (GPR120 [3]; [7]) was 19.5 nM and the EC50 (GPR40) was over 50100 nM. The melting point was 211 to 212 °C.

With `Cc1cc(C)c(NS(=O)(=O)c2ccc(-c3ccc(F)cc3)cc2)c(C)c1` [Compound B2, 4′-Fluoro-N-Mesityl-[1,1′-Biphenyl]-4-Sulfonamide] the melting point was 214 to 215 °C.

In the case of `Cc1cc(C)c(NS(=O)(=O)c2ccc(-c3ccc(Br)cc3)cc2)c(C)c1` [Compound B3, 4′-Bromo-N-Mesityl-[1,1′-Biphenyl]-4-Sulfonamide], the melting point is reported as 176 to 177 °C.

With `Cc1ccc(-c2ccc(S(=O)(=O)Nc3c(C)cc(C)cc3C)cc2)cc1` [Compound B4, N-Mesityl-4′-Methyl-[1,1′-Biphenyl]-4-Sulfonamide] the melting point was 195 to 196 °C.

For `Cc1cc(C)c(NS(=O)(=O)c2ccc(-c3ccc(N)c(F)c3)cc2)c(C)c1` [Compound B6, 4′-Amino-3′-Fluoro-N-Mesityl-[1,1′-Biphenyl]-4-Sulfonamide], the “inhibition rate in BRET screening compared with GSK137647A” value (GPR120 [1]) was “higher than GSK137647A”, the “Emax (FFA4 Ca2+)” value (GPR120 [2]) was 1.25 and the EC50 (GPR120 [2]; [6]) was 204 nM. For the same compound, the “Emax (FFA4 β-arrestin2)” value (GPR120 [3]) was 0.881, the EC50 (GPR120 [3]; [7]) was 132 nM and the EC50 (GPR40) was over 50100 nM. The melting point was 176 to 177 °C.

`Cc1cc(C)c(NS(=O)(=O)c2ccc(-c3ccc(Cl)cc3)cc2)c(C)c1` [Compound B8, 4′-Chloro-N-Mesityl-[1,1′-Biphenyl]-4-Sulfonamide] showed a melting point of 214 to 215 °C.

With `Cc1cc(C)c(NS(=O)(=O)c2ccc(NCCCCN3C(=O)c4cccc5c(N(C)C)ccc(c45)C3=O)cc2)c(C)c1` [Compound N3, 4-((4-(6-(Dimethylamino)-1,3-dioxo-1H-benzo[de]isoquinolin-2(3H)-yl)butyl)amino)-N-mesitylbenzenesulfonamide] the λabs [4] was 417 nm, the “Φ (absolute quantum yield)” value [4] was 1.03% and the λem [4] was 560 nm. For the same compound, the λex [4] was 438 nm, the “SS (stokes shift)” value [4] was 122 nm and the EC50 (GPR120 [2]; [8]) was 8910 nM. For the same compound, the EC50 (GPR120 [3]; [9]) was 1780 nM and the melting point was 184 to 185 °C.

Work on `O=S(=O)(Nc1ccc(OC(F)(F)F)cc1)c1ccc(-c2ccc(OC(F)(F)F)cc2)cc1` [Compound D2, 4′-(Trifluoromethoxy)-N-(4-(Trifluoromethoxy)phenyl)-[1,1′-Biphenyl]-4-Sulfonamide] yielded a melting point of 139 to 140 °C.

With `COc1ccc(NS(=O)(=O)c2ccc(-c3ccc(OC(F)(F)F)cc3)cc2)cc1OC` [Compound D1, N-(3,4-Dimethoxyphenyl)-4′-(Trifluoromethoxy)-[1,1′-Biphenyl]-4-Sulfonamide] the melting point was 145 to 146 °C.

For `Cc1ccc(S(=O)(=O)NC2c3ccccc3Oc3ccccc32)cc1` [AH-7614], the “pEC50 (Literature)” value (GPR120 [5]) is given as <4.5^16.

In the case of `Cc1cc(C)c(NS(=O)(=O)c2ccc(-c3ccc(OC(F)(F)F)cc3)cc2)c(C)c1` [Compound B5, N-Mesityl-4′-(Trifluoromethoxy)-[1,1′-Biphenyl]-4-Sulfonamide], the “inhibition rate in BRET screening compared with GSK137647A” value (GPR120 [1]) is reported as “higher than GSK137647A”, the “Emax (FFA4 Ca2+)” value (GPR120 [2]) is reported as 1.27 and the EC50 (GPR120 [2]; [6]) is reported as 81.3 nM. For the same compound, the “Emax (FFA4 β-arrestin2)” value (GPR120 [3]) was 0.790, the EC50 (GPR120 [3]; [7]) was 43.7 nM and the EC50 (GPR40) was over 50100 nM. It also gave a melting point of 169 to 170 °C.

`Cc1cc(C)cc(COc2ccc(S(=O)(=O)Nc3c(C)cc(C)cc3C)cc2)c1` [Compound C1, 4-((3,5-Dimethylbenzyl)oxy)-N-mesitylbenzenesulfonamide] showed a melting point of 152 to 153 °C.

In the case of `O=S(=O)(Nc1ccc(Cl)cc1Cl)c1ccc(-c2ccc3ccccc3c2)cc1` [Compound D7, N-(2,4-Dichlorophenyl)-4-(naphthalen-2-yl)benzenesulfonamide], the “inhibition rate in BRET screening compared with GSK137647A” value (GPR120 [1]) is reported as “higher than GSK137647A”, the “Emax (FFA4 Ca2+)” value (GPR120 [2]) is reported as 0.752 and the EC50 (GPR120 [2]; [6]) is reported as 129 nM. For the same compound, the “Emax (FFA4 β-arrestin2)” value (GPR120 [3]) was 1.17, the EC50 (GPR120 [3]; [7]) was 16.6 nM and the EC50 (GPR40) was over 50100 nM. It also gave a melting point of 175 to 176 °C.

In the case of `Cc1cc(C)c(NS(=O)(=O)c2ccc(NCCCN3C(=O)c4cccc5c(N(C)C)ccc(c45)C3=O)cc2)c(C)c1` [Compound N2, 4-((3-(6-(Dimethylamino)-1,3-dioxo-1H-benzo[de]isoquinolin-2(3H)-yl)propyl)amino)-N-mesitylbenzenesulfonamide], the λabs [4] is reported as 418 nm, the “Φ (absolute quantum yield)” value [4] is reported as 2.28% and the λem [4] is reported as 562 nm. The λex [4] was 439 nm, the “SS (stokes shift)” value [4] was 123 nm and the EC50 (GPR120 [2]; [8]) was 6310 nM. It also gave an EC50 (GPR120 [3]; [9]) of 562 nM and a melting point of 103 to 104 °C.

Work on `Cc1cc(C)c(NS(=O)(=O)c2ccc(OCc3ccc(Br)cc3)cc2)c(C)c1` [Compound C3, 4-((4-Bromobenzyl)oxy)-N-mesitylbenzenesulfonamide] yielded a melting point of 161 to 162 °C.

Compound `Cc1cc(C)c(NS(=O)(=O)c2ccc(-c3ccccc3)cc2)c(C)c1` [Compound B1, N-Mesityl-[1,1′-biphenyl]-4-sulfonamide] has a melting point of 165 to 166 °C.

`Cc1cc(C)c(NS(=O)(=O)c2ccc(OCc3c(F)cccc3C(F)(F)F)cc2)c(C)c1` [Compound C2, 4-((2-Fluoro-6-(trifluoromethyl)benzyl)oxy)-N-mesitylbenzenesulfonamide] showed a melting point of 154 to 155 °C.
